Measurements published in patent US12661382B2, “Method for obtaining oleocanthal type secoiridoids and for producing respective pharmaceutical preparations” (OMPHAX SA, priority 2019, dated 2026).

Assay: water solubility
Assay type: physicochemical

Water solubility with respect to substances (1-6), greatly increased water solubility:
5S-(E)-oleokoronadiol [Substance 10]
5S-(E)-oleomissionadiol [Substance 9]
S-(E)-oleaceinediol [Substance 8]
S-(E)-oleocanthadiol [Substance 7]
ligstrodiol [Substance 12]
oleuropeinediol [Substance 11]
